For orientation: IC50 means the concentration needed to halve the response being measured.

The structures appear in SMILES notation. Where two headings read alike, the source gives them in different places.

The results in this text go back to patent US20110071124A1, “Compounds that Inhibit Production of sAPPB and AB and Uses Thereof” (The Trustees of Columbia University in the City of New York, priority 2008, published 2011).

The subject of assay [1] is sAPPβ (BACE1 cleavage of SEAP-APPwt) in SY5Y-BACEGFP-SEAPAPPwt cells. Put plainly: cell-based BACE1 assay (sAPPβ modified ELISA). The procedure:
FIG. 1. An sAPPβ assay utilized to identify inhibitors of BACE1. The assay utilizes SY5Y cells stably overexpressing BACE-GFP and SEAP-APPwt. Cells are incubated with a candidate compound for 6 hours prior to harvesting media. BACE1-mediated cleavage of APP results in the release of sAPPβ into the media. α-secretase, a competing enzyme that is non-amyloidogenic, also cleaves APP to release […]. Using an sAPPβ-specific antibody (sβwt), SEAP-sAPPβ is specifically captured in a modified ELISA assay. Detection is achieved by addition of the fluorescent alkaline phosphatase substrate, 4-methylumbelliferyl phosphate (4-MUP).
FIG. 13. […] Compounds were tested in SY5Y-BACEGFP-SEAPAPPwt cells using the cell-based BACE1 assay. Select compounds were also investigated for Aβ-lowering effect using a commercial Aβ ELISA kit (BioSource). All compounds were tested at 8 concentrations (30, 10, 3, 1, 0.3, 0.1, 0.03, and 0.01 μM), and data points were analyzed with Origin software and fitted using a logistic model for IC50 determination.
As described in the Examples below, and depicted in FIG. 1, an sAPPβ ELISA assay may comprise cells, for example, SY5Y cells, transfected with a BACE1 reporter construct, such as a GFP-tagged BACE1 (BACE-GFP), and a wild type APP reporter construct, such as a secreted alkaline phosphatase (SEAP)-tagged wild type APP (SEAP-APPwt). BACE1 cleavage of the reporter-tagged APP (e.g. SEAP-APPwt) may result in secretion into the media of SEAP-tagged sAPPβ, which may be collected and specifically captured using an sAPPβ cleavage site-specific antibody (e.g. stβwt). Following washing, a substrate may be used, for example, the fluorescent alkaline phosphatase substrate 4-methylumbelliferyl phosphate (4-MUP), to detect the captured SEAP-sAPPβ.
A cell-based modified ELISA assay for measuring sAPPβ, the secreted ectodomain of β-amyloid precursor protein (APP) following β-secretase (BACE1) cleavage, was used to identify a class of compounds that interfered with the first step of sAPPβ generation. This assay has been described in International Application PCT/US2007/015938 (Published as International Publication No. WO 08/008463), which is herein incorporated in its entirety for all purposes.
The SY5Y-BACEGFP-SEAPAPPwt cell based assay was developed to discover novel small molecule modulators of BACE1 activity. SY5Y cells were stably transfected with GFP-tagged BACE1 (BACE-GFP) and secreted alkaline phosphatase (SEAP)-tagged wildtype APP (SEAP-APPwt). BACE1 cleavage of SEAP-APPwt results in secretion into the media of SEAP-tagged sAPPβ, which is collected and specifically captured using an sAPP0 cleavage site-specific antibody (sβwt). After washing, the fluorescent alkaline phosphatase substrate 4-methylumbelliferyl phosphate (4-MUP) is used to detect the captured SEAP-sAPPβ (FIG. 1).
The 15 LDDN compounds selected based on their 3-point dose-response profile were tested at 12 concentrations (ranging from 0.1 nM to 30 μM) in the cell-based BACE1 assay. The assay was conducted in 96-well format to maximize the Z′ factor. Compounds were characterized in duplicate cell plates, each containing 12 doses of compound in triplicate. Cell viability was measured at 6 and 24 hours using Promega's Cell Titer-Glo kit according to the manufacturer's protocol. The dose-response curves for sAPPβ reduction were plotted using Origin software and fitted using a logistic model for IC50 determination.
27 structural analogs of LDN-0057228 were synthesized and tested using the cell-based BACE1 assay in SY5Y-BACEGFP-SEAPAPPwt cells (FIG. 13). 4 analogs, in addition to the parent compound, were also assessed for Aβ40 lowering activity using a commercial Aβ kit (BioSource). Because LDN-0057228 resembles CNS monoamine transporter inhibitors, this analog series was given the designation “CNS.” LDN-0057228 gave an unexpectedly low potency (IC50˜20 μM for both sAPPβ and Aβ40 reduction) compared to the ˜7 μM potency obtained using the same compound in FIG. 8.
A general note: In an ELISA, binding on a coated surface is turned into a signal by an enzyme label.

In assay [2] the test system is sAPPβ in Tg2576 primary cortical neurons. Kind of assay: sAPPβ IP-Western in Tg2576 primary cortical neurons. It is filed as cell-based, mouse. The conditions noted are these: LDN-0057228 20 μM, CNS-2 5 μM, 24 hours. The procedure:
FIG. 17A-B. LDN-0057228 and CNS-2 reduce Aβ40 and sAPPβ in Tg2576 primary neurons. Primary cortical neurons were cultured from P0 APPsw transgenic pups (Tg2576). DIV-14 neurons were treated for 24 hours with LDN-0057228 or CNS-2 at the indicated concentrations. Data from two independent experiments were pooled. A) Media was collected for Aβ40 ELISA. Raw Aβ40 values were normalized to total protein to control for variations in plating density or any cytotoxicity resulting from the compounds. B) sAPPβ in the media was immunoprecipitated with sβsw antibody and visualized on Western blot with LN27.
CNS-2 and LDN-0057228 were evaluated in the Tg2576 pup system (FIG. 17). Primary cortical neurons were harvested from P0 Tg2576 pups. Each pup yielded 3 wells on a 12-well plate at a plating density of 0.8×10^5 cells per well. After genotyping, neurons from each transgenic pup (APPsw +/−) were treated with DMSO, LDN-0057228 (20 μM), or CNS-2 (5 μM) at DIV-14 for 24 hours. Data from two independent experiments were pooled, representing primary neurons from 4 transgenic pups. LDN-0057228 (20 μM) reduced Aβ40 by 65% (p<0.001) and CNS-2 (5 μM) reduced Aβ40 by 60% (p=0.001) (FIG. 17A).

[3] abbreviates: SAR study, 8 concentrations (30-0.01 μM), SY5Y-BACEGFP-SEAPAPPwt cells, read-out: IC50(sAPPβ).

As to `Fc1ccc(C(OCCN2CCC[C@H]2CNCCc2ccccc2)c2ccc(F)cc2)cc1` [LDN-0057228], the IC50 in assay [1] (12 concentrations 0.1 nM to 30 μM, 96-well format (FIG. 8), read-out: cell-based IC50 (sAPPβ), 12-point dose-response) was roughly 7 µM; in assay [1] (setting [3]) it was roughly 20 µM. In addition, the “sAPPβ as visualized by IP-Western” value in assay [2] is “reduced sAPPβ”.
Regarding `O=C(CCc1ccccc1)NC[C@@H]1CCCN1CCOC(c1ccc(F)cc1)c1ccc(F)cc1` [CNS-2], the IC50 in assay [1] (setting [3]) came to 8.9 µM. The “sAPPβ as visualized by IP-Western” value in assay [2] is “reduced sAPPβ”.
